Experiment [1] in a line: Inhibition of FAS2 in Staphylococcus aureus assessed as inhibition of fatty acid synthesis by scintillation counting.
The subject of experiment [2] is Streptococcus pneumoniae. The experiment can be described thus: Antibacterial activity against Streptococcus pneumoniae CL2883 at 64 ug/mL. The class given is functional, organism-based.
The test system of experiment [3] is Staphylococcus aureus. The experiment can be described thus: Antibacterial activity against Staphylococcus aureus Smith at 64 ug/mL. The class given is functional, organism-based.
Experiment [4] concerns Staphylococcus aureus. The experiment can be described thus: Inhibition of FAS2 in Staphylococcus aureus assessed as inhibition of fatty acid synthesis at 167 ug/ml.
Experiment [5] relates to Enterococcus faecalis. The experiment can be described thus: Antibacterial activity against Enterococcus faecalis CL8516 at 64 ug/mL. The class given is functional, organism-based.
Experiment [6] is described as follows: Inhibition of FabH in Staphylococcus aureus assessed as inhibition of fatty acid synthesis.
The subject of experiment [7] is Staphylococcus aureus. The experiment can be described thus: Antibacterial activity against Staphylococcus aureus assessed as minimum concentration required to differential zone of clearance between antisense plate compared to control. The class given is functional.
For experiment [8], the system named is Streptococcus pneumoniae. The experiment can be described thus: Antibacterial activity against Streptococcus pneumoniae CL2883. The class given is functional.
Experiment [9] concerns Staphylococcus aureus. Briefly: Antibacterial activity against Staphylococcus aureus Smith. The class given is functional.
The test system of experiment [10] is Enterococcus faecalis. Briefly: Antibacterial activity against Enterococcus faecalis CL8516. The class given is functional.
Experiment [11] in a line: Inhibition of Escherichia coli FabF C163F.

≈ marks a conversion by molar mass, not a printed value. Calls of active or inactive are those of the source. Bounds are passed on as bounds.

Usually IC50 stands for the midpoint of a concentration-inhibition curve. In the case of `CC12C[C@@]34C=CC(=O)[C@@](C)(CCC(=O)Nc5c(O)ccc(C(=O)O)c5O)C3[C@H](CC1C4)O2` (stereo partly drawn) [PLATENSIMYCIN], in experiment [1], the half-maximal inhibitory concentration (IC50) stood at 0.5 µg/mL (≈ 1.13 µM).

`C=C1C[C@@]23C=CC(=O)[C@@](C)(CCC(=O)OC)C2C[C@@H]1C[C@H]3O` (stereo partly drawn): the result in experiment [2], in experiment [3], in experiment [4] and in experiment [5] was inactive.

For the compound `C=C1C[C@@]23C=CC(=O)[C@@](C)(CCC(=O)Nc4c(O)ccc(C(=O)OC)c4O)C2C[C@@H]1C[C@H]3O` (stereo partly drawn), the result in experiment [2], in experiment [3], in [4] and in experiment [5] was inactive.

As a reminder, the MIC is the smallest concentration in the dilution series that meets the test's criterion for growth inhibition. Higher therefore signals a need for much substance. As for `C=C1C[C@@]23C=CC(=O)[C@@](C)(CCC(=O)Nc4c(O)ccc(C(=O)O)c4O)C2C[C@@H]1C[C@H]3O` (stereo partly drawn), the concentration for half-maximal inhibition (IC50) stood at 15 µg/mL (≈ 34 µM) in experiment [6] and 7.12 µg/mL (≈ 16.1 µM) in experiment [1]. In [7], the Activity was 20 µg/mL. Besides, the minimum inhibitory concentration (MIC) is more than 64 µg/mL in experiment [8], 32 µg/mL (≈ 72.5 µM) in [9] and 8 µg/mL (≈ 18.1 µM) in [10].

`C=C1C[C@@]23C=CC(=O)[C@@](C)(CCC(=O)Nc4c(O)ccc(C(=O)O)c4O)[C@@H]2C[C@@H]1CC3` [PLATENCIN]: the Activity in experiment [7] worked out at 0.2 µg/mL. For the same compound, the IC50 was found to be 12 µg/mL (≈ 28.2 µM) in experiment [1] and 113 nM in [11].

The values are drawn from ChEMBL document CHEMBL1153069, “Isolation, enzyme-bound structure and antibacterial activity of platencin A1 from Streptomyces platensis” (Bioorg Med Chem Lett, 2009).
